{
  "source": "paper PMC9929129",
  "about": "“Towards Translation of PqsR Inverse Agonists: From In Vitro Efficacy Optimization to In Vivo Proof‐of‐Principle” (Advanced Science, 2023)",
  "key": {"CYP2D6": {"biological_target": "T1, CYP2D6 (Homo sapiens, UniProt P10635)", "T1 construct": "Cyprotex", "experiment": "Cytochrome P450 inhibition assay, CYP2D6", "format": "in vitro ADME", "conditions": "Metabolic activity", "protocol": "1.4.4 Pharmacokinetic and off-target functional assays (Cyprotex)\nCompound 24 was assayed at Cyprotex in functional assays for interference with important off-targets as well as important pharmacokinetic parameters. With the exception of plasma protein binding, a dose-response relationship was studied in order to calculate IC50 values.\nTable S10. Information on in vitro ADMET assays performed at Cyprotex. […]\nAn increase in the number of colonies of at least two-fold over baseline (mean + SD of the vehicle control) and a dose response indicate a positive response. An […]\ndifferent from the vehicle control.\nWhere indicated, S9 fraction from the livers of Aroclor 1254-treated rats were included in the incubation at a final concentration of 4.5%. A NADPH-regenerating system was also included to ensure a steady supply of reducing equivalents."}, "CCK1 (CCKA) (h)": {"biological_target": "T2, CCK1 (CCKA) (h) (Homo sapiens, UniProt P32238)", "T2 construct": "Eurofins Pharma Discovery (CRO that ran the assay) SafetyScreen44 Panel (Cerep, ITEM P270)", "experiment": "Cerep panel binding assay", "conditions": "agonist radioligand", "protocol": "(§1) 1.4 Safety Pharmacology of Compound 24\n(§2) 1.4.1 Cerep panel (Eurofins)\n(§3) Compound 24 was further profiled for its off-target interactions against a panel of 44 targets. The\n(§4) screening was done by Eurofins Pharma Discovery within the SafetyScreen44 Panel (Cerep, ITEM\n(§5) P270). In all assays binding/functional inhibition was determined at 10 µM.\n(§6) Table S6. […]"}, "H1 (h)": {"biological_target": "T3, H1 (h) (Homo sapiens, UniProt P35367)", "T3 construct": "purchased Eurofins Pharma Discovery (Cerep) SafetyScreen44 Panel, ITEM P270", "T3 sequence (P35367 whole entry)": "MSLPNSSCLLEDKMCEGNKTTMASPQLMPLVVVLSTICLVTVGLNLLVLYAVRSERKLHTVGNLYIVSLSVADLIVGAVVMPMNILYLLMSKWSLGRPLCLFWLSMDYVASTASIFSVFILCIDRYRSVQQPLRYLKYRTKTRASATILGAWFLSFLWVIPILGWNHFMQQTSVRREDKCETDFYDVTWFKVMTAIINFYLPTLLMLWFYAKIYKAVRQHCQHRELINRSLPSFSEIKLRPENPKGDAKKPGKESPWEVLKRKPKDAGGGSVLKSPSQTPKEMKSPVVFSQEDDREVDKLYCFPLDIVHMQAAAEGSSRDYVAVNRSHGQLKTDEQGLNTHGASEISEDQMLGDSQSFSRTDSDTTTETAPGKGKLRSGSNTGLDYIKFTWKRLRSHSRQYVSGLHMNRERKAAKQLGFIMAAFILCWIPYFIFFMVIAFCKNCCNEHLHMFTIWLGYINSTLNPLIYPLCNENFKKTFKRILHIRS", "experiment": "Cerep panel binding assay", "conditions": "antagonist radioligand", "protocol": "as §1, §2, §3, §4, §5, §6"}, "[1]": {"biological_target": "T4, N neuronal alpha4beta2 (h) (Homo sapiens, UniProt P17787+P43681)", "T4 construct": "Eurofins Pharma Discovery (CRO that ran the assay) SafetyScreen44 Panel (Cerep, ITEM P270)", "T4 sequence (P43681 29-627 limits assumed)": "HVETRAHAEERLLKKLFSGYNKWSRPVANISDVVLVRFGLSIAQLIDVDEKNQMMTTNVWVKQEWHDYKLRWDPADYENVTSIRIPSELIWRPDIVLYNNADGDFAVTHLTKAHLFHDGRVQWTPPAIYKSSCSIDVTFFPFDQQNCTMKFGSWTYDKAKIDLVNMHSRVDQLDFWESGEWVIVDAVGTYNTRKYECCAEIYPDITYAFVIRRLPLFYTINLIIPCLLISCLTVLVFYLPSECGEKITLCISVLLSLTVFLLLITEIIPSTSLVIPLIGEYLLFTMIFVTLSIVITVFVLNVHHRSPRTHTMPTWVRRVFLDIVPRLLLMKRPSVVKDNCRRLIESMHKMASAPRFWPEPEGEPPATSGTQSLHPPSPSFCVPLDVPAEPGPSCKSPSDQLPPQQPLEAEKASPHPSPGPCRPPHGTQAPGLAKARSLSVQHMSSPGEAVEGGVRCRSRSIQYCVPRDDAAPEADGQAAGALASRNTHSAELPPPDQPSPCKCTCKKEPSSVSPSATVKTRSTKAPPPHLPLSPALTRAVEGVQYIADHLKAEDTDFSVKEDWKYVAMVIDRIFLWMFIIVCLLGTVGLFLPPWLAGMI", "T4 sequence (P17787 26-502)": "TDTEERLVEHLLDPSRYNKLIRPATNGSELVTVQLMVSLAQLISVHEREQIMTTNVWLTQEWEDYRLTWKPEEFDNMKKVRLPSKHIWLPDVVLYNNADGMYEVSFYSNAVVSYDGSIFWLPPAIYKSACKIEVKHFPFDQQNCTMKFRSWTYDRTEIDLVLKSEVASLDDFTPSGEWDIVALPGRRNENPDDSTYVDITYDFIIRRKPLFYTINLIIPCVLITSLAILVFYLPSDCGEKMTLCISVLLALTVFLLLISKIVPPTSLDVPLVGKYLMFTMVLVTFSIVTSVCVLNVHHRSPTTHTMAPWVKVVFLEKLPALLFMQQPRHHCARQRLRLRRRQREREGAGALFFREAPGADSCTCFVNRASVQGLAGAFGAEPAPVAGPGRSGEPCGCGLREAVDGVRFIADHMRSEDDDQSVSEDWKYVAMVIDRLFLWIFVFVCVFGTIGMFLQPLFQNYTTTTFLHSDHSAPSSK", "experiment": "Cerep panel binding assay", "conditions": "agonist radioligand", "protocol": "as §1, §2, §3, §4, §5, §6"}, "A2A (h)": {"biological_target": "T5, A2A (h) (Homo sapiens, UniProt P29274)", "T5 construct": "Eurofins Pharma Discovery (CRO that ran the assay) SafetyScreen44 Panel (Cerep, ITEM P270)", "experiment": "Cerep panel binding assay", "conditions": "10 µM, agonist radioligand", "protocol": "as §1, §2, §3, §4, §5, §6"}, "alpha1A (h)": {"biological_target": "T6, alpha1A (h) (Homo sapiens, UniProt P35348)", "T6 construct": "purchased Eurofins Pharma Discovery (Cerep) SafetyScreen44 Panel, ITEM P270", "T6 sequence (P35348 whole entry)": "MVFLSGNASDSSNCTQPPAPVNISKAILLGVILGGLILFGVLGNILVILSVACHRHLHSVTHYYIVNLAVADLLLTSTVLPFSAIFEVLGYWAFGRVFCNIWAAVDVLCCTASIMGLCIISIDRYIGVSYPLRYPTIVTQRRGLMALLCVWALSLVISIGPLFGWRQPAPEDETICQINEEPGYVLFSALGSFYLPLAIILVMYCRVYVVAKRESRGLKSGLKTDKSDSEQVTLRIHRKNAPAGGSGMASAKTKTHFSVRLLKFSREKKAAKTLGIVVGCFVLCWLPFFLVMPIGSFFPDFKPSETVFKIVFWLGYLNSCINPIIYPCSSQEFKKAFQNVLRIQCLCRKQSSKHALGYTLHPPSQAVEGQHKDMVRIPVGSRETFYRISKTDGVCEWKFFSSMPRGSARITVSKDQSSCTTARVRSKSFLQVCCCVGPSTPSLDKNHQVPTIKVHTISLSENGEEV", "experiment": "Cerep panel binding assay", "conditions": "antagonist radioligand", "protocol": "as §1, §2, §3, §4, §5, §6"}, "D2S (h)": {"biological_target": "T7, D2S (h) (Homo sapiens, UniProt P14416)", "T7 construct": "Eurofins Pharma Discovery (CRO that ran the assay) SafetyScreen44 Panel (Cerep, ITEM P270)", "T7 sequence (P14416 1-414 isoform P14416-2)": "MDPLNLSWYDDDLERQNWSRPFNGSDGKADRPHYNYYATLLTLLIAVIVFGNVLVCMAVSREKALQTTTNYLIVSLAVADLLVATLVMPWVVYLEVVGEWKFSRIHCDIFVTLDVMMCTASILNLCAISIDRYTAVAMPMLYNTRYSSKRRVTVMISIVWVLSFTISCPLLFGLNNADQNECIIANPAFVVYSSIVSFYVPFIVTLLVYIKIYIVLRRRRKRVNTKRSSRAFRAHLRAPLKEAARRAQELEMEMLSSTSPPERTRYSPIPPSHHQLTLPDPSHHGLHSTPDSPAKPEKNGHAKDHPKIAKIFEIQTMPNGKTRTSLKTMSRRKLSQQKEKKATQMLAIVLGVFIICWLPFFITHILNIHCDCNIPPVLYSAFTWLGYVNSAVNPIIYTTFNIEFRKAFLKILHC", "experiment": "Cerep panel binding assay", "conditions": "agonist radioligand", "protocol": "as §1, §2, §3, §4, §5, §6"}, "M3 (h)": {"biological_target": "T8, M3 (h) (Homo sapiens, UniProt P20309)", "T8 construct": "Eurofins Pharma Discovery (CRO that ran the assay) SafetyScreen44 Panel (Cerep, ITEM P270)", "experiment": "Cerep panel binding assay", "conditions": "antagonist radioligand", "protocol": "as §1, §2, §3, §4, §5, §6"}, "5-HT1A (h)": {"biological_target": "T9, 5-HT1A (h) (Homo sapiens, UniProt P08908)", "T9 construct": "purchased Eurofins Pharma Discovery (Cerep) SafetyScreen44 Panel, ITEM P270", "experiment": "Cerep panel binding assay", "conditions": "agonist radioligand", "protocol": "as §1, §2, §3, §4, §5, §6"}, "M1 (h)": {"biological_target": "T10, M1 (h) (Homo sapiens, UniProt P11229)", "T10 construct": "Eurofins Pharma Discovery (CRO that ran the assay) SafetyScreen44 Panel (Cerep, ITEM P270)", "experiment": "Cerep panel binding assay", "conditions": "antagonist radioligand", "protocol": "as §1, §2, §3, §4, §5, §6"}, "dopamine transporter (h)": {"biological_target": "T11, dopamine transporter (h) (Homo sapiens, UniProt Q01959)", "T11 construct": "purchased Eurofins Pharma Discovery (Cerep) SafetyScreen44 Panel, ITEM P270", "T11 sequence (Q01959 whole entry)": "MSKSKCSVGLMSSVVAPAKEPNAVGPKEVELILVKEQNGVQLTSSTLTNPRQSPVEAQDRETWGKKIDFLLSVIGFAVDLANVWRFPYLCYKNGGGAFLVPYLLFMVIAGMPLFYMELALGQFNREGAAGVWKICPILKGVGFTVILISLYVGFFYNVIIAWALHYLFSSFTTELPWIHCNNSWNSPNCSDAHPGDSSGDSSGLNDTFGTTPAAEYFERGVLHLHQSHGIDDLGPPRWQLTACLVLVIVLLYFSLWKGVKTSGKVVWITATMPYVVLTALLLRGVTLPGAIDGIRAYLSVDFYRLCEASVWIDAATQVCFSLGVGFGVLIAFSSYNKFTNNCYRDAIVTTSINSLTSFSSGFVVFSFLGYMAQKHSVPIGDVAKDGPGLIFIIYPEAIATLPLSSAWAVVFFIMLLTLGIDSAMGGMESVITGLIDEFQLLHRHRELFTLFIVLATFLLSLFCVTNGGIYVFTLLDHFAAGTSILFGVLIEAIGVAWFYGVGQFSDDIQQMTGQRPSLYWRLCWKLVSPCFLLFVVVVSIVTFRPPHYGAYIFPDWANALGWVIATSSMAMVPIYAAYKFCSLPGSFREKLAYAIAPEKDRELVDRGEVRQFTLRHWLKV", "experiment": "Cerep panel binding assay", "conditions": "antagonist radioligand", "protocol": "as §1, §2, §3, §4, §5, §6"}, "ETA (h)": {"biological_target": "T12, ETA (h) (Homo sapiens, UniProt P25101)", "T12 construct": "Eurofins Pharma Discovery (CRO that ran the assay) SafetyScreen44 Panel (Cerep, ITEM P270)", "experiment": "Cerep panel binding assay", "conditions": "agonist radioligand", "protocol": "as §1, §2, §3, §4, §5, §6"}, "BZD (central)": {"system": "BZD (central)", "experiment": "Cerep panel binding assay", "conditions": "10 µM, agonist radioligand", "protocol": "as §1, §2, §3, §4, §5, §6"}, "H2 (h)": {"biological_target": "T13, H2 (h) (Homo sapiens, UniProt P25021)", "T13 construct": "Eurofins Pharma Discovery (CRO that ran the assay) SafetyScreen44 Panel (Cerep, ITEM P270)", "T13 sequence (P25021 whole entry)": "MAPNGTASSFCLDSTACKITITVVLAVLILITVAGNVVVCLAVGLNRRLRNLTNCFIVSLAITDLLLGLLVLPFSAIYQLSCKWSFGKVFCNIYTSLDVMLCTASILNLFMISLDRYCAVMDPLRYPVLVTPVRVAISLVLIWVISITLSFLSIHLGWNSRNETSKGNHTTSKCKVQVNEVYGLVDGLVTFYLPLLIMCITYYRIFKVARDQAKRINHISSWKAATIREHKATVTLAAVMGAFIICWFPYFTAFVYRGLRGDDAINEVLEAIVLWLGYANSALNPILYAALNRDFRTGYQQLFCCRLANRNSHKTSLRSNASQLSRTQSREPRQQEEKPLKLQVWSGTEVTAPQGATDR", "experiment": "Cerep panel binding assay", "conditions": "antagonist radioligand", "protocol": "as §1, §2, §3, §4, §5, §6"}, "beta2 (h)": {"biological_target": "T14, beta2 (h) (Homo sapiens, UniProt P07550)", "T14 construct": "purchased Eurofins Pharma Discovery (Cerep) SafetyScreen44 Panel, ITEM P270", "experiment": "Cerep panel binding assay", "conditions": "antagonist radioligand", "protocol": "as §1, §2, §3, §4, §5, §6"}, "mu (MOP) (h)": {"biological_target": "T15, mu (MOP) (h) (Homo sapiens, UniProt P35372)", "T15 construct": "purchased Eurofins Pharma Discovery (Cerep) SafetyScreen44 Panel, ITEM P270", "T15 sequence (P35372 whole entry)": "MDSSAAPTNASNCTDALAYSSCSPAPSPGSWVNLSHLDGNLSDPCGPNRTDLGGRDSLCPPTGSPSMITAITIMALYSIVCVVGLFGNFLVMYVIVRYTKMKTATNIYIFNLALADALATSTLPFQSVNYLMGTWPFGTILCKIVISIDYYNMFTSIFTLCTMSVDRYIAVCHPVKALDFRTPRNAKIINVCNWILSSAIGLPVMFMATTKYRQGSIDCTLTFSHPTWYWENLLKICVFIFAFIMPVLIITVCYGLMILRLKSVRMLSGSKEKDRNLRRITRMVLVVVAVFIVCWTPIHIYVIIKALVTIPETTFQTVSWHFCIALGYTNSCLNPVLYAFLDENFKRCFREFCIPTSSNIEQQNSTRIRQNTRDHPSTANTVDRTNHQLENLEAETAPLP", "experiment": "Cerep panel binding assay", "conditions": "agonist radioligand", "protocol": "as §1, §2, §3, §4, §5, §6"}, "D1 (h)": {"biological_target": "T16, D1 (h) (Homo sapiens, UniProt P21728)", "T16 construct": "purchased Eurofins Pharma Discovery (Cerep) SafetyScreen44 Panel, ITEM P270", "T16 sequence (P21728 whole entry)": "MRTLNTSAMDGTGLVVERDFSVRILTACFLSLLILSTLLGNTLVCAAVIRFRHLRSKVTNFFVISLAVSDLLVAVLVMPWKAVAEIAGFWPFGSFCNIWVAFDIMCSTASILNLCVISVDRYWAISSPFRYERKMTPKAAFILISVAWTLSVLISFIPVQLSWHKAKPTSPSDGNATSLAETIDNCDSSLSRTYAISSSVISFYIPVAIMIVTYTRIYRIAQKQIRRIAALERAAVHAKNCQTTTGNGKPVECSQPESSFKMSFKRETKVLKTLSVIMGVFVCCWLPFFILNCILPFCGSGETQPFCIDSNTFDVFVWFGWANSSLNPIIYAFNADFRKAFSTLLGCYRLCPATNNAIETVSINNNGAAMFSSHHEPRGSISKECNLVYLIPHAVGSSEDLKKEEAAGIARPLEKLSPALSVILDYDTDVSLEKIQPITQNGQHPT", "experiment": "Cerep panel binding assay", "conditions": "antagonist radioligand", "protocol": "as §1, §2, §3, §4, §5, §6"}, "alpha2A (h)": {"biological_target": "T17, alpha2A (h) (Homo sapiens, UniProt P08913)", "T17 construct": "purchased Eurofins Pharma Discovery (Cerep) SafetyScreen44 Panel, ITEM P270", "T17 sequence (P08913 whole entry)": "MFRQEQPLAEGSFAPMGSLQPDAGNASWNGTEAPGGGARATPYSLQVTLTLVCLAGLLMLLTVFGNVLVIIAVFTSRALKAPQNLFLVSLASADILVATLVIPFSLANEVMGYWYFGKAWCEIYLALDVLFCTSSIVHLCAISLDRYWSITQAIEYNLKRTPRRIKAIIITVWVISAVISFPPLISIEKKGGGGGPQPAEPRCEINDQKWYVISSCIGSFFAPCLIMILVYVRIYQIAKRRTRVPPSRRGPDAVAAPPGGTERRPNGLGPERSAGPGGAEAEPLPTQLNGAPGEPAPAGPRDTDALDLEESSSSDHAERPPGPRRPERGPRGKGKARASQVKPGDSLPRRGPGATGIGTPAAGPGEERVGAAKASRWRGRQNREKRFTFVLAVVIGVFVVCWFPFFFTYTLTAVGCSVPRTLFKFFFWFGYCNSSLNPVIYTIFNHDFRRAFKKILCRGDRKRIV", "experiment": "Cerep panel binding assay", "conditions": "antagonist radioligand", "protocol": "as §1, §2, §3, §4, §5, §6"}, "[2]": {"system": "Bronchiectasis clinical isolates, PA14 and PAO1", "experiment": "Antimicrobial minimal inhibitory concentrations (MIC), microdilution", "conditions": "Pseudomonas aeruginosa"}},
  "note": "pIC50: −log10 of the molar value.",
  "data": [
    {"smiles": "CC(C)Oc1ccc(-c2ncc(CNc3ccnc(C(F)(F)F)c3)cn2)cc1Cl", "note": "[Compound 24]", "values": [
      {"measurement": "pIC50", "setting": "CYP2D6", "result": "< 4.60"},
      {"measurement": "inhibition at 10 µM", "setting": "CCK1 (CCKA) (h)", "result": -12, "unit": "%"},
      {"measurement": "inhibition at 10 µM", "setting": "H1 (h)", "result": 8.2, "unit": "%"},
      {"measurement": "inhibition at 10 µM", "setting": "[1]", "result": -4.7, "unit": "%"},
      {"measurement": "BINDING (%)", "setting": "A2A (h)", "result": 2.2, "unit": "%"},
      {"measurement": "inhibition at 10 µM", "setting": "alpha1A (h)", "result": 3.4, "unit": "%"},
      {"measurement": "inhibition at 10 µM", "setting": "D2S (h)", "result": -0.6, "unit": "%"},
      {"measurement": "inhibition at 10 µM", "setting": "M3 (h)", "result": -2, "unit": "%"},
      {"measurement": "inhibition at 10 µM", "setting": "5-HT1A (h)", "result": 11.3, "unit": "%"},
      {"measurement": "inhibition at 10 µM", "setting": "M1 (h)", "result": -5.9, "unit": "%"},
      {"measurement": "inhibition at 10 µM", "setting": "dopamine transporter (h)", "result": 22.7, "unit": "%"},
      {"measurement": "inhibition at 10 µM", "setting": "ETA (h)", "result": -0.3, "unit": "%"},
      {"measurement": "BINDING (%)", "setting": "BZD (central)", "result": "–27.1%"},
      {"measurement": "inhibition at 10 µM", "setting": "H2 (h)", "result": -30, "unit": "%"},
      {"measurement": "inhibition at 10 µM", "setting": "beta2 (h)", "result": 7.9, "unit": "%"},
      {"measurement": "inhibition at 10 µM", "setting": "mu (MOP) (h)", "result": 8.2, "unit": "%"},
      {"measurement": "inhibition at 10 µM", "setting": "D1 (h)", "result": 12.2, "unit": "%"},
      {"measurement": "inhibition at 10 µM", "setting": "alpha2A (h)", "result": 8.4, "unit": "%"}
    ]},
    {"smiles": "NC[C@H]1O[C@H](O[C@H]2[C@H](O)[C@@H](O[C@H]3O[C@H](CO)[C@@H](O)[C@H](N)[C@H]3O)[C@H](N)C[C@@H]2N)[C@H](N)C[C@@H]1O", "note": "[Tobramycin, tobramycin]", "values": [
      {"measurement": "MIC", "setting": "[2]; PA14|PAO1, strain column 1 of 16 (strain heads not assignable)", "result": 1, "unit": "µg/mL"},
      {"measurement": "MIC", "setting": "[2]; strain column 2 of 16", "result": 1, "unit": "µg/mL"},
      {"measurement": "MIC", "setting": "[2]; strain column 3 of 16", "result": "≤ 0.5", "unit": "µg/mL"},
      {"measurement": "MIC", "setting": "[2]; strain column 4 of 16", "result": "≤ 0.5", "unit": "µg/mL"},
      {"measurement": "MIC", "setting": "[2]; strain column 5 of 16", "result": "≤ 0.5", "unit": "µg/mL"},
      {"measurement": "MIC", "setting": "[2]; strain column 6 of 16", "result": "≤ 0.5", "unit": "µg/mL"},
      {"measurement": "MIC", "setting": "[2]; strain column 7 of 16", "result": "≤ 0.5", "unit": "µg/mL"},
      {"measurement": "MIC", "setting": "[2]; strain column 8 of 16", "result": 2, "unit": "µg/mL"},
      {"measurement": "MIC", "setting": "[2]; strain column 9 of 16", "result": 1, "unit": "µg/mL"},
      {"measurement": "MIC", "setting": "[2]; strain column 10 of 16", "result": "≤ 0.5", "unit": "µg/mL"},
      {"measurement": "MIC", "setting": "[2]; strain column 11 of 16", "result": "≤ 0.5", "unit": "µg/mL"},
      {"measurement": "MIC", "setting": "[2]; strain column 12 of 16", "result": "≤ 0.5", "unit": "µg/mL"},
      {"measurement": "MIC", "setting": "[2]; strain column 13 of 16", "result": "≤ 0.5", "unit": "µg/mL"},
      {"measurement": "MIC", "setting": "[2]; strain column 14 of 16", "result": "≤ 0.5", "unit": "µg/mL"},
      {"measurement": "MIC", "setting": "[2]; strain column 15 of 16", "result": "≤ 0.5", "unit": "µg/mL"},
      {"measurement": "MIC", "setting": "[2]; strain column 16 of 16", "result": "≤ 0.5", "unit": "µg/mL"}
    ]}
  ]
}
